As a reminder, the LD50 is the dose at which mortality reaches 50%.

This is an account of results in US4389486A, “Biologically pure culture” (Kowa Company, Ltd., priority 1977, dated 1983).

Data set [1] is described as follows: Stability to pH. Format: physicochemical.
The nature of data set [2]: Solubility. It is filed as physicochemical.
Data set [3] in a line: Acute toxicity in mice. The note with it: mouse, in vivo. From the text:
The acute toxicities of the KA-6606 I, II, III and IV of this invention determined by using mice are as follows.

The mark [4] stands for this setting: in chloroform, ethyl acetate, diethyl ether, hexane and petroleum ether.

In the case of `COC1CC(N)C(OC2OC(C(C)N)CCC2N)C(O)C1N(C)C(=O)CN` (centres unmarked) [KA-6606 I], the Stability result in data set [1] (in basicity and strong acidity) is “gradually decomposed and inactivated”; in data set [1] (pH of 3 to 8), “Stable”. Also, the Solubility result in data set [2] (setting [4]) is “Insoluble”; in data set [2] (in ethanol), “slightly soluble”; in data set [2] (in methanol) it was “Easily soluble”; in data set [2] (in water), “Very readily soluble”. Moreover, the LD50 was in the range of 50 to 100 mg/kg in data set [3] (iv.) and 200 to 400 mg/kg in data set [3] (sc.).
As to `COC1CC(N)C(OC2OC(C(C)N)CCC2N)C(O)C1N(C)C(=O)CNC(N)=O` (centres unmarked) [KA-6606 III], the Stability entry in data set [1] (in basicity and strong acidity) was “gradually decomposed and inactivated”; in data set [1] (pH of 3 to 8) it was “Stable”. Also, the Solubility entry is on record as “insoluble” in data set [2] (setting [4]), “slightly soluble” in data set [2] (in ethanol), “easily soluble” in data set [2] (in methanol) and “Very readily soluble” in data set [2] (in water). Moreover, the LD50 in data set [3] (iv.) was above 200 mg/kg; in data set [3] (sc.) it was above 800 mg/kg.
As to `COC1CC(N)C(OC2OC(C(C)N)CCC2N)C(O)C1N(C)C(=O)CNC=O` (centres unmarked) [KA-6606 IV], the Stability result was “gradually decomposed and inactivated” in data set [1] (in basicity and strong acidity); “Stable” in data set [1] (pH of 3 to 8). The Solubility entry in data set [2] (setting [4]) is on record as “insoluble”; in data set [2] (in ethanol) it was “slightly soluble”; in data set [2] (in methanol) it was “easily soluble”; in data set [2] (in water), “Very readily soluble”. Moreover, the values for the LD50 in data set [3] (iv.) and in data set [3] (sc.) were above 200 mg/kg and above 800 mg/kg, respectively.
On to `CNC1C(OC)CC(N)C(OC2OC(C(C)N)CCC2N)C1O` (centres unmarked) [KA-6606 II], for which the Stability entry in data set [1] (in strong acidity) is “gradually decomposed and inactivated”; in data set [1] (pH of at least 2) it was “Stable”. For the same compound, the Solubility result in data set [2] (setting [4]) was “insoluble”; in data set [2] (in ethanol), “slightly soluble”; in data set [2] (in methanol), “easily soluble”; in data set [2] (in water) it was “Very readily soluble”. The LD50 was above 400 mg/kg in data set [3] (iv.) and above 1000 mg/kg in data set [3] (sc.).
